The values below come from PubChem BioAssay (NCI).

Common to all, as to assay: NCI-60 cell line screen, 48 h
Experiment [1] relates to HCC-2998 colon.
In experiment [2] the test system is HL-60(TB) leukemia.
Experiment [3] deals with SF-295 CNS.
Experiment [4] deals with HCT-116 colon.
The test system of experiment [5] is HCT-15 colon.
Experiment [6] has as its system CAKI-1 renal.
The test system of experiment [7] is NCI-H226 lung.
Experiment [8] deals with MALME-3M melanoma.
The subject of experiment [9] is DU-145 prostate.
Experiment [10] has as its system HOP-92 NSCLC.

“And” between values parts separate entries of the source, which are not always exact repeats. Equal values may be shown once.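 These data come from cells grown in 96-well plates and exposed to compound for 48 hours at five concentrations. Abbreviation: GI50, concentration required for 50% inhibition of growth. TGI is the concentration that stops growth completely.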

As for `O=C(c1cccs1)c1nc2cc(Cl)ccc2[n+]([O-])c1C(F)(F)F`, the GI50 was 87.4 µM in [1]; over 100000 nM in [2]; 91.3 µM in [3]; 23200 nM in experiment [4]; over 100000 nM in [5]; over 100 µM in experiment [6]. The results for the GI50 in [7], in [8] and in experiment [9] were over 100000 nM, 99 µM and over 100 µM, respectively. Also, the TGI in [1], in [2], in experiment [3], in [4], in [5] and in [6] was over 100 µM in each case. Moreover, the TGI in experiment [7], in experiment [8] and in experiment [9] was over 100 µM throughout.

For the compound `COc1ncc(-c2ccc3nccc(C#CCN4CCN(S(C)(=O)=O)CC4)c3c2)cc1NS(=O)(=O)c1ccc(F)cc1F`, the GI50 is 0.0635 µM in experiment [1]; 25.7 nM in experiment [2]; 0.0684 µM in experiment [3]; 178 nM in experiment [4]; 61.4 nM in experiment [5]; 0.173 µM in experiment [6]. Besides, the GI50 in experiment [7] was 298 nM; in experiment [8], 0.015 µM; in [9], 0.108 µM. Besides, the TGI came out at 1.25 µM in experiment [1]; 1.81 µM in experiment [2]; 1.17 µM in [3]; 1.87 µM in experiment [4]; 1.62 µM in experiment [5]; 13.4 µM in [6]. Further, the TGI was found to be 2.27 µM in [7], 0.214 µM in experiment [8] and 12.6 µM in [9].

For the compound `CCCCN(CCCC)CC(C(=O)Nc1ccc([N+](=O)[O-])cc1[N+](=O)[O-])/C(C)=N\NC(=O)C[N+](C)(C)C` (centres undefined), the TGI in [1], in experiment [2], in experiment [3], in [4], in [5] and in experiment [10] was over 100 µM throughout. Further, the TGI in [6], in experiment [7] and in [8] was over 100 µM each time.

`CCOC(=O)/C(=C/c1ccccc1Br)P(=O)(OCC)OCC`: the TGI in experiment [1] stood at 3.24 µM; in experiment [2] it was 1.94 µM; in experiment [3], 12.2 µM; in experiment [4] it was 10.1 µM; in experiment [5], 5.87 µM; in experiment [10] it was 3.45 µM. Moreover, the TGI in [6] amounted to 4.3 µM; in experiment [7], 6.89 µM; in experiment [8] it was 3.47 µM.

`CC(=O)OCC1OC([Se-])C(OC(C)=O)C(OC(C)=O)C1OC(C)=O.N#CCC[PH+](CCC#N)CCC#N.[Au+]` (centres undefined): the GI50 was 12.5 µM in [1]; 1870 nM in experiment [2]; 13.7 µM in experiment [3]; 3850 nM in experiment [4]; 3920 nM in [5]; 12100 nM in [10]. Further, the GI50 in experiment [6] was 16.2 µM; in experiment [7], 3730 nM; in [8], 15 µM. Also, the TGI in experiment [1] is 43.4 µM; in experiment [2], 4.31 µM; in experiment [3] it was 35.9 µM; in [4] it was over 50.2 µM; in experiment [5], 23.4 µM; in experiment [10] it was 52.2 µM. The results for the TGI in [6], in experiment [7] and in experiment [8] were 55.6 µM, 16.3 µM and 48.3 µM, respectively.

Turning to `Cc1cc2c(cc1C)[n+](=O)c(C(=O)CC(=O)C(=O)Nc1ccccc1C(C)C)c(C)n2[O-]`, the TGI in experiment [1], in experiment [2], in experiment [3], in experiment [4], in [5] and in experiment [10] was over 100 µM in each case. For the same compound, the TGI in [6], in [7] and in [8] was over 100 µM in each case.

On to `NC(=O)CCc1ccccc1Oc1nccc(-c2c(-c3ccc(F)cc3)ncn2C2CCNCC2)n1`, for which the GI50 in experiment [1] was over 25 µM; in [2] it was over 25000 nM; in experiment [3], over 25 µM; in [4], over 25000 nM; in experiment [5], over 25000 nM; in experiment [6] it was over 25 µM. Also, the GI50 in experiment [8] and in experiment [9] was over 25 µM throughout. Moreover, the TGI in experiment [1], in experiment [2], in experiment [3], in [4], in [5] and in [6] was over 25 µM each time. The TGI in experiment [8] and in experiment [9] was over 25 µM each time.

For `CC(=O)CC(=O)NC=O`, the TGI in experiment [1], in [2], in experiment [3], in [4], in [5] and in [10] was over 100 µM each time. Also, the TGI in experiment [6], in [7] and in experiment [8] was over 100 µM each time.

With `Cc1ccc(NC(=O)c2nc(S(C)(=O)=O)oc2-c2ccc(F)cc2)cc1Nc1ccc2ncn(C)c(=O)c2c1`, the GI50 in experiment [1] is 2.54 µM; in experiment [2] it was 2110 nM; in experiment [3], 16 µM; in experiment [4] it was 1750 nM; in experiment [10], 1910 nM; in [7] it was 2330 nM. For the same compound, the GI50 in [9] is 1.72 µM. Also, the TGI in experiment [1] was 6.47 µM; in experiment [2], 5.2 µM; in [3] it was 31 µM; in experiment [4], 3.37 µM; in [10], 3.87 µM; in [7], 5.52 µM. In [9], this compound came in with a TGI of 3.09 µM.

For the compound `O=C([O-])CCc1ccccc1.O=C([O-])CCc1ccccc1.O=C([O-])CCc1ccccc1.O=C([O-])CCc1ccccc1.[Mo+2].[Mo+2]`, the GI50 in experiment [1] is over 100 µM; in experiment [2], over 100000 nM; in [3], over 100 µM; in [4], over 100000 nM; in [5], over 100000 nM; in experiment [10] it was 43400 nM. Besides, the GI50 in experiment [6] is over 100 µM; in experiment [7] it was over 100000 nM; in experiment [8], over 100 µM. Also, the TGI in experiment [1], in experiment [2], in experiment [3], in experiment [4], in experiment [5] and in experiment [10] was over 100 µM in each case. Moreover, the TGI in [6], in experiment [7] and in experiment [8] was over 100 µM each time.

With `O=C(O)c1cn(C2CC2)c2cc(N3CCN(C(=O)Nc4nc(-c5ccc(Br)cc5)cs4)CC3)c(F)cc2c1=O`, the GI50 in [1] is 2.97 µM; in experiment [3] it was 3.06 µM; in experiment [4] it was 1170 nM; in experiment [5] it was 1750 nM; in [10], 2000 nM; in experiment [8] it was 0.853 µM. Also, the GI50 in experiment [9] was 2.05 µM. The TGI in [1] was over 100 µM; in experiment [3], over 100 µM; in [4], over 100 µM; in experiment [5] it was over 100 µM; in [10] it was 6.88 µM; in experiment [8], over 100 µM. The TGI in experiment [9] was over 100 µM.

In the case of `O=C(/C=C/c1nnc2n(Cc3ccccc3)c(=O)c3c4c(sc3n12)CCCC4)c1ccccc1`, the GI50 was over 100 µM in experiment [1]; 407 nM and 332 nM in experiment [2]; 310 nM in experiment [4]; 2040 nM and 389 nM in experiment [5]; 1550 nM in experiment [10]; over 100 µM in [8]. In addition, the GI50 in experiment [9] is over 100 µM. Also, the TGI in experiment [1] was over 100 µM; in experiment [2], over 100 µM; in [3], over 100 µM; in experiment [4], 1.12 µM; in experiment [5], over 100 µM; in experiment [10], over 100 µM. Further, the TGI in experiment [6], in experiment [8] and in [9] was over 100 µM each time.

With `Cn1c(=O)c2[nH]c(CCCc3ccc([N+](=O)[O-])cc3)nc2n(C)c1=O`, the TGI in [3], in [4], in experiment [5], in experiment [10], in experiment [6] and in [7] was over 100 µM each time. Further, the TGI in experiment [8] and in experiment [9] was over 100 µM in each case.

On to `NC(CO)c1ccc(OCc2ccccc2)cc1` (centres undefined), for which the TGI is over 100 µM in experiment [1]; over 100 µM in experiment [2]; over 100 µM in [3]; over 100 µM in experiment [4]; over 100 µM in experiment [5]; 98.1 µM in experiment [10]. The TGI in experiment [6] was over 91.4 µM; in experiment [7], over 100 µM; in experiment [8], over 100 µM.

Consider `NC(=S)N/N=C(\CCC(=O)Nc1ccccc1[N+](=O)[O-])CC(=O)c1ccco1`, for which the TGI in experiment [1], in [2], in experiment [3], in [4], in experiment [5] and in [10] was over 100 µM throughout. The TGI in experiment [6], in experiment [7] and in experiment [8] was over 100 µM each time.

Regarding `O=c1c(O)cc2c(O)oc3c(=O)c(O)c(O)c4c(O)oc1c2c43`, the TGI in [1] was over 100 µM; in [2], over 100 µM; in experiment [3], 50.4 µM; in [4], over 100 µM; in [5], over 100 µM; in experiment [10] it was over 100 µM. Further, the TGI in [6], in [7] and in [8] was over 100 µM in each case.

As to `C=CCC12CCC(=O)[C@@]1(C)CC=C(O)C2=O` (some centres undefined), the TGI in experiment [1], in experiment [2], in experiment [3], in [4], in experiment [5] and in experiment [10] was over 100 µM in each case. The TGI in [6], in [7] and in experiment [8] was over 100 µM in each case.

Consider `CCN1C(=O)N(CC)C2C1NC(=S)N2/N=C/C=C/c1ccccc1OC` (centres undefined), for which the GI50 in experiment [1] is 0.0343 µM; in experiment [2] it was 26.4 nM; in [3], 0.0306 µM; in experiment [4], under 18.2 nM; in experiment [5], 34.1 nM; in experiment [10], 26.9 nM. The values for the GI50 in experiment [6], in experiment [7] and in experiment [8] were 0.0514 µM, 45.8 nM and 0.0599 µM, respectively. The TGI in experiment [1] was 16.2 µM; in experiment [2] it was 0.0722 µM; in [3], over 100 µM; in [4], over 55.9 µM; in experiment [5], over 100 µM; in experiment [10], 27.1 µM. Besides, the TGI in experiment [6], in experiment [7] and in [8] was over 100 µM each time.

As for `N#Cc1c2ccccc2c2nnc3ccc(C(F)(F)F)cc3n12`, the GI50 in experiment [2] was 40000 nM; in experiment [3] it was 42.7 µM; in experiment [4] it was 58400 nM; in experiment [5], 40600 nM; in experiment [10], 91600 nM; in experiment [6] it was 43.7 µM. In addition, the GI50 in [8] was 47.9 µM; in [9], 28 µM. In addition, the TGI in experiment [2], in experiment [3], in [4], in experiment [5], in [10] and in [6] was over 100 µM each time. For the same compound, the TGI in [8] and in experiment [9] was over 100 µM throughout.

`O=c1[nH]c2ccccc2n2cc3ccccc3c12`: the GI50 was 5.84 µM in [1]; 17.9 µM in experiment [3]; 2120 nM in experiment [4]; 3310 nM in [5]; 3990 nM in experiment [10]; 17.6 µM in experiment [6]. The GI50 was 2880 nM in experiment [7], 25.1 µM in experiment [8] and 7.61 µM in experiment [9]. For the same compound, the TGI amounted to 20.8 µM in experiment [1]; 35.8 µM in experiment [3]; 12.3 µM in experiment [4]; 18.6 µM in [5]; 18.5 µM in experiment [10]; 35.5 µM in experiment [6]. Also, the results for the TGI in [7], in experiment [8] and in experiment [9] were 13.8 µM, 46.5 µM and 37.7 µM, respectively.
